From patent US7049305B2, “Bile-acid conjugates providing for sustained systemic concentration of drugs” (XenoPort, Inc., priority 2000, dated 2006)

Biological target: T1, rPEPT1 (Rattus norvegicus, UniProt P51574)
T1 construct: expressed in transfected cells; host or cells: CHO cells
T1 sequence (P51574 1-710): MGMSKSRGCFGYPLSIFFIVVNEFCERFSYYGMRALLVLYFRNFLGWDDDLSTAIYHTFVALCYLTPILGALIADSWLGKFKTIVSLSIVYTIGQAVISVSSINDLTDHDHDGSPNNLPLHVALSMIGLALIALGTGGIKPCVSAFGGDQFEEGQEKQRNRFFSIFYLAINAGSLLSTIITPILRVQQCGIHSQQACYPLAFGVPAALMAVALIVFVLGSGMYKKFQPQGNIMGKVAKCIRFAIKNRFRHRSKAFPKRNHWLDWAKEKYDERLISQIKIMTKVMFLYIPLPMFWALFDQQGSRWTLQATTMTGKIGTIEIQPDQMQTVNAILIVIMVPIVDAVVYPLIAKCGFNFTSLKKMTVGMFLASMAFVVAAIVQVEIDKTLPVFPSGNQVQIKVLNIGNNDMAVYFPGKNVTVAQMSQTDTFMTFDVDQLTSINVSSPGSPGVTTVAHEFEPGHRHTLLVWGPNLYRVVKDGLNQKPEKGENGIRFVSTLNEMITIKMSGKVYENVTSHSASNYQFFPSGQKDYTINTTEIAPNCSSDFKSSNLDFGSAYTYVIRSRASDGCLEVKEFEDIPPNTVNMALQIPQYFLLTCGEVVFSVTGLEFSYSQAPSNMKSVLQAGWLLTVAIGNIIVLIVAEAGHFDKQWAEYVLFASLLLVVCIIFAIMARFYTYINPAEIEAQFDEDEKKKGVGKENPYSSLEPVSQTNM
Test: Transport-induced currents in Xenopus oocytes expressing rPEPT1
Type: cell-based
Conditions: response relative to Gly-Sar, test compound 1 mM
Protocol: Rat and human PEPT1 and PEPT2 expressing CHO cell lines were prepared as described in PCT Application WO01/20331. Gabapentin-containing dipeptides were evaluated for interaction with the peptide transporters using a radiolabeled substrate uptake assay in a competitive inhibition format, as described in PCT Application WO01/20331. Transport-induced currents were also measured in Xenopus oocytes transfected with rat and human PEPT1 and PEPT2.

## NCC(=O)NCC1(CC(=O)O)CCCCC1 [Gly-Gabapentin]
  % Max. (Gly-Sar): 76%
